Source: publication PMC5908295 (Oncotarget, 2018)

Legend:
PIM2 = PIM2 (Homo sapiens, UniProt Q9P1W9); experiment: KINOMEscan Kd (DiscoverX); assay type: binding
FLT3 (D835H) = FLT3 (D835H) (Homo sapiens, UniProt P36888, D835H); experiment: KINOMEscan Kd, specific screen against FLT3 mutants; assay type: binding
Experimental: (§1) Dissociation constants (Kd) and inhibition levels of FLT3 mutants were measured at DiscoverX using the KINOMEscan^TM Profiling Service (KdELECT).

FLT3 (ITD, D835V) = FLT3 (ITD, D835V) (Homo sapiens, UniProt P36888, D835V/ITD); experiment: as above; assay type: binding
Experimental: as §1

FLT3 (ITD, F691L) = FLT3 (ITD, F691L) (Homo sapiens, UniProt P36888, F691L/ITD); experiment: as above; assay type: binding
Experimental: as §1

FLT3 (K663Q) = FLT3 (K663Q) (Homo sapiens, UniProt P36888, K663Q); experiment: as above; assay type: binding
Experimental: as §1

[1] = tested on: S6 phosphorylation (Ser235/236) in KG-1 cells; experiment: S6 phosphorylation, Western blot; assay type: cell-based; conditions: Homo sapiens; KG-1, 4 hours; read-out: IC50 S6 phosphorylation (Ser235/236), Western blotting
Experimental: (§2) Cells were collected, washed twice with cold PBS, and lysed in RIPA buffer and kept on ice for 10 min. Tumor specimens from xenograft studies were homogenized in RIPA buffer using OMNI TH Tissue Homogenizer and kept on ice for 30 min. After incubation, cell and tumor lysates were centrifuged at 13,000×g at 4°C for 10 min and the supernatants were stored at −80°C until use. Protein concentration was measured using the Bradford method. For SDS-PAGE, 50 μg of protein in the Laemmli sample buffer was loaded onto 10% polyacrylamide gels and electrophoresed. Thereafter, proteins were transferred onto polyvinylidene fluoride (PVDF) membranes (Millipore). After blocking with 5% non-fat dry milk/TBS-T or 2% BSA/TBS-T, membranes were incubated with specific primary antibodies (listed in Supplementary Table 2) at 4 °C overnight. After extensive washing in PBS-T, membranes were incubated for 60 min with appropriate secondary peroxidase-conjugated IgG. The immunoreactive proteins were detected using an enhanced chemiluminescence (ECL) substrate (GE Healthcare) and visualized with Hyperfilm-ECL (GE Healthcare Biosciences).

[2] = tested on: S6 phosphorylation (Ser235/236) in MOLM-13 cells; experiment: S6 phosphorylation, Western blot; assay type: cell-based; conditions: Homo sapiens; MOLM-13, 4 hours; read-out: IC50 S6 phosphorylation (Ser235/236), Western blotting
Experimental: as §2

[3] = tested on: S6 phosphorylation (Ser235/236) in MOLM-16 cells; experiment: S6 phosphorylation, Western blot; assay type: cell-based; conditions: MOLM16; MOLM-16, 4 hours; read-out: IC50 S6 phosphorylation (Ser235/236), Western blotting
Experimental: as §2

[4] = tested on: S6 phosphorylation (Ser235/236) in MV-4-11 cells; experiment: S6 phosphorylation, Western blot; assay type: cell-based; conditions: Homo sapiens, MV4-11; MV-4-11, 4 hours; read-out: IC50 S6 phosphorylation (Ser235/236), Western blotting
Experimental: as §2

[5] = Metabolic stability, liver S9 fraction; assay type: in vitro ADME; conditions: Rat, 37 °C, read-out: Liver S9 fraction t1/2 (converted)
[6] = Metabolic stability, liver microsomes; assay type: in vitro ADME; conditions: Rat, 37 °C, read-out: Liver microsomes t1/2 (converted)
[7] = Total blood cell counts in mice with MV-4-11 tumors; conditions: treatment day 15
Source text: All animals were handled in strict accordance with good animal practice as defined by the relevant national and local animal welfare bodies. SCID and SCID/beige C.B-17 mice were provided by Harlan Laboratories or Charles River Laboratories, and were maintained in pathogen free conditions. For the xenograft experiments, age-matched (9-11 weeks old) females were used. 5×10^6 of MV-4-11 or MOLM-16 cells were suspended in a mixture (1:1, v:v) of PBS with Matrigel (BD Biosciences,) and injected subcutaneously (sc), in a total volume of 100 μL, above the groin on the right hind limb. For MOLM-13 and KG-1 cells, a mixture (3:1, v:v) of PBS and Matrigel HC (BD Bioscience,) was used to inject 5 × 10^6 of cell per mouse subcutaneously (sc), in a total volume of 100 μL. When tumors reached 100-130 mm^3, mice were randomized into uniform groups (6-9 mice per group) and subsequently administered the compound. […] At the end of the experiment, mice were anesthetized with isofluran and blood samples for total cell counts and biochemistry were obtained by retro-orbital bleeding. […] 5×10^6 cells suspended in a mixture (3:1, v:v) of PBS and Matrigel were injected as described above. When the tumor volume reached ~120 mm^3, mice were randomized into uniform groups (5 mice per group) and the compound then administered. […] Tumor volume was monitored every second day and calculated using the formula: TV = (a^2×b)/2, where “a” is the short axis in millimeters, and “b” is the long axis in millimeters. Body weight was assessed every day. […]
Supplementary Table 10: Related to Figure 5C. […] The assessment total
performed on treatment day 15.
RBC – red blood cells, HGB – hemoglobin, HCT – hematocrit, WBC – white blood cells, LYMPH – lymphocytes, MONO
– monocytes, GRA – granulocytes, PLT – platelet, MPV – mean platelet volume.

KG-1 = experiment: MTS viability assay, 72 h; conditions: Homo sapiens, KG-1, 72 h
Experimental: (§3) 15-25 ×10^3 of MV-4-11, MOLM-13, MOLM-14, MOLM-16, KG-1, Eol-1, SKM-1, PL-21, GDM-1, SKNO-1, RS4;11, Kasumi-3 and Kasumi-6 cells were seeded in 150 μL of culture medium onto individual wells in a 96 well plates, in triplicates. On the same day, 50 μL of medium containing tested inhibitor was added to the wells. Each compound was tested at 8 concentrations, in triplicates. As a negative control, the medium containing 0.1% DMSO was used. […] Staurosporine was used at 10 μM as a positive control. One the day of drug addition, basal signal from untreated cells was measured from in triplicate to determine time zero (T0). […] GI50 and LC50 values were extrapolated from a variable (four-parameter) dose-response curve fitted in GraphPad Prism.

OCI-AML-3 = experiment: MTS viability assay, 72 h; conditions: Homo sapiens, OCI-AML-3, 72 h
Experimental: as §3

SIG-M5 = experiment: MTS viability assay, 72 h; conditions: Homo sapiens, SIG-M5, 72 h
Experimental: On the same day, 50 μL of medium containing tested inhibitor was added to the wells. Each compound was tested at 8 concentrations, in triplicates. As a negative control, the medium containing 0.1% DMSO was used. […] Staurosporine was used at 10 μM as a positive control. One the day of drug addition, basal signal from untreated cells was measured from in triplicate to determine time zero (T0). […] GI50 and LC50 values were extrapolated from a variable (four-parameter) dose-response curve fitted in GraphPad Prism.

PIM2, sequence (Q9P1W9 whole entry): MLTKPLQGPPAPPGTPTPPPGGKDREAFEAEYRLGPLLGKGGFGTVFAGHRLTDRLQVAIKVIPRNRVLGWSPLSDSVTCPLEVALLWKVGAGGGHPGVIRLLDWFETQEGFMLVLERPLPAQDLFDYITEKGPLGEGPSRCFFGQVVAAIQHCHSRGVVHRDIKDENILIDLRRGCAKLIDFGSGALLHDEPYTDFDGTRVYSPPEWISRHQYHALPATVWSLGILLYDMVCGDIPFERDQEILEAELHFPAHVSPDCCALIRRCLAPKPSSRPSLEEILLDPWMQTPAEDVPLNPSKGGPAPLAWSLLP

## CC(C)n1c(C2CCNCC2)nc2c([N+](=O)[O-])c(Br)c(Br)cc21 [SEL24-B489, 5,6-dibromo-4-nitro-2-(piperidin-4-yl)-1-(propan-2-yl)-1H-1,3-benzodiazole]
PIM2
  Kd: 0.002 µM
FLT3 (D835H)
  Kd: 0.037 µM
FLT3 (ITD, D835V)
  Kd: 0.0028 µM
FLT3 (ITD, F691L)
  Kd: 0.01 µM
FLT3 (K663Q)
  Kd: 0.53 µM
[1]
  IC50: 0.031 µM
[2]
  IC50: 0.003 µM
[3]
  IC50: 0.035 µM
[4]
  IC50: 0.001 µM
[5]
  half-life at 1 µM: 4.3 h
[6]
  half-life at 1 µM: 21.8 h
[7]; SEL24-B489 25 mg/kg
  GRA: 42.2%
  HCT: 48.8%
  HGB: 14.6 g/dL
  LYMPH: 47.2%
  MONO: 10.6%
  MPV: 6.1 μm3
  PLT: 1016 103/mm3
  RBC: 9.8 106/mm3
  WBC: 3.1 103/mm3
[7]; SEL24-B489 50 mg/kg
  GRA: 49.1%
  HCT: 47.4%
  HGB: 14.4 g/dL
  LYMPH: 40.3%
  MONO: 10.5%
  MPV: 5.7 μm3
  PLT: 1286 103/mm3
  RBC: 9.6 106/mm3
  WBC: 4.9 103/mm3
KG-1
  GI50: 0.067 µM
KG-1; read-out: LC50
  CC50: 2.44 µM
OCI-AML-3
  GI50: 1.59 µM
OCI-AML-3; read-out: LC50
  CC50: 9.21 µM
SIG-M5
  GI50: 0.806 µM
SIG-M5; read-out: LC50
  CC50: 3.44 µM
